Laboratory results taken from patent US11000033B2, “Ketone or oxime compound, and herbicide” (NISSAN CHEMICAL CORPORATION, priority 2014, dated 2021).

Columns and labels:
Type in all cases: in vivo
transplanted rice plant = assay: Test Example 1: effect on crop, application before weed generation in submerged conditions (symbol a); details: application herbicide amount 320 g/ha
Method in brief: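 Alluvial soil pots flooded to 4 cm water, sown with Echinochloa oryzacola, Scirpus juncoides and Monochoria vaginalis, then transplanted with 2.5 leaf stage rice seedlings; pre-emergence application. Greenhouse 25° C. to 30° C.; scored 0–5 by herbicidal ratio 3 weeks after application.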

Abutilon theophrasti [1] = assay: Test Example 4: herbicidal effect by soil treatment (symbol M); details: for M: Abutilon theophrasti, herbicidal effect grade: 320 g/ha; for M (Abutilon theophrasti) herbicidal effect grade: application herbicide amount 320 g/ha
Method in brief: (§1)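 Seeds were sown in sterilized diluvial soil, covered with about 1.5 cm of soil, and the soil surface was sprayed with a water-diluted emulsion of the compound at a predetermined rate. Plants grew in a greenhouse at 25° C. to 30° C.; effects were scored visually 3 weeks after application.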

Abutilon theophrasti [2] = assay: Test Example 5: herbicidal effect by foliage application, plastic box (symbol M); details: 320 g/ha, 3 weeks after application
Method in brief: (§2)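 Sowing in sterilized diluvial soil, 14 days' greenhouse growth at 25° C. to 30° C., then uniform small-sprayer foliar application of aqueous emulsion dilution; plants scored three weeks afterwards.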

Avena fatua = assay: Test Example 4: herbicidal effect by soil treatment (symbol I); details: for I: Avena fatua, herbicidal effect grade: 320 g/ha; for I (Avena fatua) herbicidal effect grade: application herbicide amount 320 g/ha
Method in brief: as §1

beet [3] = assay: Test Example 4: effect on crop by soil treatment (symbol f); details: for f: beet, effect grade on crop: 320 g/ha; for f (beet) effect on crop grade: application herbicide amount 320 g/ha
Method in brief: (§3)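 The test used sterilized diluvial soil. Seed was set down in spots and overlaid with about 1.5 cm of soil before growth in a greenhouse kept at 25° C. to 30° C.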

Scirpus juncoides = assay: Test Example 2: herbicidal activity, application during weed generation in submerged conditions (symbol B); details: Table 23; application herbicide amount 320 g/ha; grade 0-5 by criteria of Test Example 1
Method in brief: (§4)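 Compound was applied as a water-diluted emulsion into the standing water of flooded pots (4 cm) once co-sown weeds reached one to two leaves. Greenhouse temperature was 25° C. to 30° C., soil was alluvial, and each species was rated visually after 3 weeks.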

Leptochloa chinensis = assay: Test Example 3: herbicidal effect by foliage application, Wagner pot (symbol D); details: application herbicide amount 320 g/ha
Method in brief: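 In a shallow-flooded alluvial soil system held at 25–30 °C, plants including rice grew for 14 days and were then sprayed over the foliage with emulsion diluted to a fixed herbicide amount. Visual rating followed at 3 weeks.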

beet [4] = assay: Test Example 5: effect on crop by foliage application, plastic box (symbol f); details: 320 g/ha, 3 weeks after application
Method in brief: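 Foliage-application test plants come from spot sowing in sterilized diluvial soil under a soil layer of about 1.5 cm, grown at 25° C. to 30° C. in a greenhouse.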

Setaria viridis = assay: Test Example 5: herbicidal effect by foliage application, plastic box (symbol G); details: 320 g/ha, 3 weeks after application
Method in brief: as §2

[5] = test system: Echinochloa oryzacola Vasing.; assay: Test Example 2: herbicidal activity, application during weed generation in submerged conditions (symbol A); details: Table 23; application herbicide amount 320 g/ha; grade 0-5 by criteria of Test Example 1
Method in brief: as §4

Lolium multiflorum Lam. = assay: Test Example 5: herbicidal effect by foliage application, plastic box (symbol K); details: 320 g/ha, 3 weeks after application
Method in brief: as §2

soybean = assay: Test Example 4: effect on crop by soil treatment (symbol d); details: for d: soybean, effect grade on crop: 320 g/ha; for d (soybean) effect on crop grade: application herbicide amount 320 g/ha
Method in brief: as §3

Row | Structure (SMILES) | Effect grade on crop, a: transplanted rice plant (transplanted rice plant) | M: Abutilon theophrasti, herbicidal effect grade (Abutilon theophrasti [1]) | M: Abutilon theophrasti, herbicidal effect (criteria 0-5) (Abutilon theophrasti [2]) | I: Avena fatua, herbicidal effect grade (Avena fatua) | f: beet, effect grade on crop (beet [3]) | Herbicidal effect grade, B: Scirpus juncoides (Scirpus juncoides) | herbicidal effect on D (Leptochloa chinensis), grade 0-5 (Leptochloa chinensis) | f: beet, effect on crop (criteria 0-5) (beet [4]) | G: Setaria viridis, herbicidal effect (criteria 0-5) (Setaria viridis) | Herbicidal effect grade, A: Echinochloa oryzacola Vasing. [5] | K: Lolium multiflorum Lam., herbicidal effect (criteria 0-5) (Lolium multiflorum Lam.) | d: soybean, effect grade on crop (soybean) | M (Abutilon theophrasti) herbicidal effect grade (Abutilon theophrasti [1]) | M: Abutilon theophrasti, herbicidal effect grade (Abutilon theophrasti [2]) | I (Avena fatua) herbicidal effect grade (Avena fatua) | f (beet) effect on crop grade (beet [3]) | f: beet, effect on crop grade (beet [4]) | G: Setaria viridis, herbicidal effect grade (Setaria viridis) | K: Lolium multiflorum Lam., herbicidal effect grade (Lolium multiflorum Lam.) | d (soybean) effect on crop grade (soybean)
1 | CON=C(CC1CC(O)=C(c2c(C)cc(C)cc2C)C1=O)C1CCCCC1 (stereo not drawn) [1-085] | 3 (Herbicidal ratio of 40% or higher and lower than 70%) | 0 (Herbicidal ratio of 5% or lower (almost no effect)) | 0 (Herbicidal ratio of 5% or lower (almost no effect)) | 0 (Herbicidal ratio of 5% or lower (almost no effect)) | 0 (Herbicidal ratio of 5% or lower (almost no effect)) | 0 (Herbicidal ratio of 5% or lower (almost no effect)) | 4 (Herbicidal ratio of 70% or higher and lower than 90%) | 0 (Herbicidal ratio of 5% or lower (almost no effect)) | 5 (Herbicidal ratio of 90% or more (almost completely withered)) | 3 (Herbicidal ratio of 40% or higher and lower than 70%) | 3 (Herbicidal ratio of 40% or higher and lower than 70%) | 0 (Herbicidal ratio of 5% or lower (almost no effect)) | – | – | – | – | – | – | – | –
2 | CCC(CC1CC(O)=C(c2c(C)cc(C)cc2C)C1=O)=NOC (stereo not drawn) [1-038] | 5 (Herbicidal ratio of 90% or more (almost completely withered)) | – | – | – | – | 5 (Herbicidal ratio of 90% or more (almost completely withered)) | 5 (Herbicidal ratio of 90% or more (almost completely withered)) | – | – | 5 (Herbicidal ratio of 90% or more (almost completely withered)) | – | – | 4 (Herbicidal ratio of 70% or higher and lower than 90%) | 4 (Herbicidal ratio of 70% or higher and lower than 90%) | 0 (Herbicidal ratio of 5% or lower (almost no effect)) | 0 (Herbicidal ratio of 5% or lower (almost no effect)) | 1 (Herbicidal ratio of 5% or higher and lower than 20%) | 5 (Herbicidal ratio of 90% or more (almost completely withered)) | 5 (Herbicidal ratio of 90% or more (almost completely withered)) | 1 (Herbicidal ratio of 5% or higher and lower than 20%)
3 | CON=C(C)CC1CC(OC(=O)C(C)Oc2ccc(Oc3cnc4cc(Cl)ccc4n3)cc2)=C(c2c(C)cc(C)cc2C)C1=O (stereo not drawn) [1-087] | 5 (Herbicidal ratio of 90% or more (almost completely withered)) | 5 (Herbicidal ratio of 90% or more (almost completely withered)) | 5 (Herbicidal ratio of 90% or more (almost completely withered)) | 3 (Herbicidal ratio of 40% or higher and lower than 70%) | 4 (Herbicidal ratio of 70% or higher and lower than 90%) | 5 (Herbicidal ratio of 90% or more (almost completely withered)) | 5 (Herbicidal ratio of 90% or more (almost completely withered)) | 4 (Herbicidal ratio of 70% or higher and lower than 90%) | 5 (Herbicidal ratio of 90% or more (almost completely withered)) | 5 (Herbicidal ratio of 90% or more (almost completely withered)) | 5 (Herbicidal ratio of 90% or more (almost completely withered)) | 2 (Herbicidal ratio of 20% or higher and lower than 40%) | – | – | – | – | – | – | – | –
4 | CC(CC1CC(O)=C(c2c(C)cc(C)cc2C)C1=O)=NOCC(F)(F)F (stereo not drawn) [1-028] | 5 (Herbicidal ratio of 90% or more (almost completely withered)) | – | – | – | – | 4 (Herbicidal ratio of 70% or higher and lower than 90%) | 5 (Herbicidal ratio of 90% or more (almost completely withered)) | – | – | 5 (Herbicidal ratio of 90% or more (almost completely withered)) | – | – | 3 (Herbicidal ratio of 40% or higher and lower than 70%) | 3 (Herbicidal ratio of 40% or higher and lower than 70%) | 4 (Herbicidal ratio of 70% or higher and lower than 90%) | 0 (Herbicidal ratio of 5% or lower (almost no effect)) | 0 (Herbicidal ratio of 5% or lower (almost no effect)) | 5 (Herbicidal ratio of 90% or more (almost completely withered)) | 5 (Herbicidal ratio of 90% or more (almost completely withered)) | 0 (Herbicidal ratio of 5% or lower (almost no effect))
5 | COCC(CC1CC(O)=C(c2c(C)cc(C)cc2C)C1=O)=NOC (stereo not drawn) [1-040] | 4 (Herbicidal ratio of 70% or higher and lower than 90%) | – | – | – | – | 0 (Herbicidal ratio of 5% or lower (almost no effect)) | 4 (Herbicidal ratio of 70% or higher and lower than 90%) | – | – | 4 (Herbicidal ratio of 70% or higher and lower than 90%) | – | – | 0 (Herbicidal ratio of 5% or lower (almost no effect)) | 1 (Herbicidal ratio of 5% or higher and lower than 20%) | 3 (Herbicidal ratio of 40% or higher and lower than 70%) | 0 (Herbicidal ratio of 5% or lower (almost no effect)) | 0 (Herbicidal ratio of 5% or lower (almost no effect)) | 4 (Herbicidal ratio of 70% or higher and lower than 90%) | 5 (Herbicidal ratio of 90% or more (almost completely withered)) | 0 (Herbicidal ratio of 5% or lower (almost no effect))
6 | CON=C(CC1CC1)CC1CC(O)=C(c2c(C)cc(C)cc2C)C1=O (stereo not drawn) [1-070] | 4 (Herbicidal ratio of 70% or higher and lower than 90%) | – | – | – | – | 0 (Herbicidal ratio of 5% or lower (almost no effect)) | 4 (Herbicidal ratio of 70% or higher and lower than 90%) | – | – | 4 (Herbicidal ratio of 70% or higher and lower than 90%) | – | – | 0 (Herbicidal ratio of 5% or lower (almost no effect)) | 0 (Herbicidal ratio of 5% or lower (almost no effect)) | 0 (Herbicidal ratio of 5% or lower (almost no effect)) | 0 (Herbicidal ratio of 5% or lower (almost no effect)) | 0 (Herbicidal ratio of 5% or lower (almost no effect)) | 5 (Herbicidal ratio of 90% or more (almost completely withered)) | 5 (Herbicidal ratio of 90% or more (almost completely withered)) | 0 (Herbicidal ratio of 5% or lower (almost no effect))
